Test results reported in ChEMBL document CHEMBL1201862, “PubChem BioAssay data set” (2004).
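The compound was tested at five concentrations on cells cultured in 96-well plates, with a 48-hour exposure period. GI50: concentration for 50% inhibition of growth.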 Calls of active or inactive are those of the source. Rule as the data show it: active = GI50 up to about 1.1 µM and inactive = higher.

What was measured:
Experiment in all cases: growth of human tumour cells (NCI), 48 h
UACC-257 = test system: UACC-257
MDA-MB-435 = test system: MDA-MB-435
SN12C = test system: SN12C
CAKI-1 = test system: CAKI-1
U-251 = test system: U-251
HOP-62 = test system: HOP-62
MDA-N = test system: MDA-N
SW-620 = test system: SW-620
SNB-19 = test system: SNB-19
OVCAR-5 = test system: OVCAR-5
RXF 393 = test system: RXF 393
SR = test system: SR
ACHN = test system: ACHN
PC-3 = test system: PC-3
M14 = test system: M14
SK-MEL-2 = test system: SK-MEL-2
A549 = test system: A549
RPMI-8226 = test system: RPMI-8226
Malme-3M = test system: Malme-3M
SNB-75 = test system: SNB-75

SMILES	GI50 (UACC-257)	GI50 (MDA-MB-435)	GI50 (SN12C)	GI50 (CAKI-1)	GI50 (U-251)	GI50 (HOP-62)	GI50 (MDA-N)	GI50 (SW-620)	GI50 (SNB-19)	GI50 (OVCAR-5)	GI50 (RXF 393)	GI50 (SR)	GI50 (ACHN)	GI50 (PC-3)	GI50 (M14)	GI50 (SK-MEL-2)	GI50 (A549)	GI50 (RPMI-8226)	GI50 (Malme-3M)	GI50 (SNB-75)
COc1ccc(C2C=C(c3ccccc3)Nc3nnnn32)cc1 (centres undefined)	98.4 µM (inactive)	76.6 µM (inactive)	> 100 µM (inactive)	54 µM (inactive)	19.7 µM (inactive)	25.5 µM (inactive)	45.1 µM (inactive)	37.3 µM (inactive)	97.9 µM (inactive)	37.7 µM (inactive)	20.3 µM (inactive)	26.4 µM (inactive)	24.1 µM (inactive)	49 µM (inactive)	68.2 µM (inactive)	38.7 µM (inactive)	41.3 µM (inactive)	51.9 µM (inactive)		
O=C(O[C@H](/C=C/c1ccccc1)P1(=O)N(Cc2ccccc2)[C@H]2CCCC[C@@H]2N1Cc1ccccc1)c1ccccc1	9.84 µM (inactive)	3.05 µM (inactive)	3.15 µM (inactive)	2.17 µM (inactive)	4.01 µM (inactive)	5.51 µM (inactive)	3.52 µM (inactive)	3.72 µM (inactive)	5.31 µM (inactive)	4.94 µM (inactive)		3.35 µM (inactive)	4.56 µM (inactive)	3.58 µM (inactive)	4.5 µM (inactive)	2.39 µM (inactive)	3.7 µM (inactive)	3.42 µM (inactive)	2.89 µM (inactive)	
COc1ccc(CNc2nc3cc(C(F)(F)F)ccc3nc2C(=O)O)cc1	24.8 µM (inactive)	21.3 µM (inactive)	21.4 µM (inactive)	35.8 µM (inactive)	28.6 µM (inactive)	21.4 µM (inactive)	27.7 µM (inactive)	31.1 µM (inactive)	31.2 µM (inactive)	28.4 µM (inactive)		24.5 µM (inactive)	29.4 µM (inactive)	31.2 µM (inactive)	22.4 µM (inactive)	23.1 µM (inactive)	28.8 µM (inactive)	39.3 µM (inactive)		38 µM (inactive)
C=C(C)OCOCCOC	> 100 µM (inactive)	> 100 µM (inactive)	> 100 µM (inactive)	> 100 µM (inactive)	> 100 µM (inactive)	> 100 µM (inactive)	> 100 µM (inactive)	> 100 µM (inactive)	> 100 µM (inactive)	> 100 µM (inactive)		> 100 µM (inactive)	> 100 µM (inactive)	> 100 µM (inactive)	> 100 µM (inactive)	> 100 µM (inactive)	> 100 µM (inactive)	> 100 µM (inactive)	> 100 µM (inactive)	> 100 µM (inactive)
COC(=O)[C@]12CC[C@H]3CN(C(=O)OCc4ccccc4)[C@H]([C@H]31)[C@H](c1ccccc1)N2	39.5 µM (inactive)	52 µM (inactive)	> 100 µM (inactive)	70.6 µM (inactive)	> 100 µM (inactive)	> 100 µM (inactive)	57.3 µM (inactive)	> 100 µM (inactive)	> 100 µM (inactive)	> 100 µM (inactive)	59.6 µM (inactive)	42.2 µM (inactive)	92 µM (inactive)	43.2 µM (inactive)	70 µM (inactive)	59.7 µM (inactive)	54.7 µM (inactive)	36.1 µM (inactive)		> 100 µM (inactive)
CC(C)N(C(=O)C12C3(C(=O)OC(C)(C)C)C4C5(C#N)C3C1(C(=O)OC(C)(C)C)C5C42C(=O)OC(C)(C)C)C(C)C (centres undefined)	28.9 µM (inactive)	27.5 µM (inactive)	> 100 µM (inactive)	37.3 µM (inactive)	83.9 µM (inactive)	> 100 µM (inactive)	19.1 µM (inactive)	24.9 µM (inactive)	> 100 µM (inactive)	> 100 µM (inactive)	12.9 µM (inactive)	21.7 µM (inactive)	> 100 µM (inactive)	51.1 µM (inactive)	59.6 µM (inactive)	> 100 µM (inactive)	93.5 µM (inactive)			0.149 µM (active)
CC#CCCCC1(C)CCNC1=S (centres undefined)	> 10 µM (inactive)	> 10 µM (inactive)	> 10 µM (inactive)		> 10 µM (inactive)		> 10 µM (inactive)	> 10 µM (inactive)	> 10 µM (inactive)	> 10 µM (inactive)	> 10 µM (inactive)	> 10 µM (inactive)	> 10 µM (inactive)	> 10 µM (inactive)	> 10 µM (inactive)	> 10 µM (inactive)	> 10 µM (inactive)		> 10 µM (inactive)	> 10 µM (inactive)
O=c1c2ccccc2n2n1Cc1ccccc1C2	> 100 µM (inactive)	> 100 µM (inactive)	> 100 µM (inactive)	> 100 µM (inactive)	> 100 µM (inactive)	> 100 µM (inactive)	> 100 µM (inactive)	> 100 µM (inactive)	> 100 µM (inactive)		> 100 µM (inactive)	> 100 µM (inactive)	> 100 µM (inactive)	> 100 µM (inactive)			> 100 µM (inactive)	> 100 µM (inactive)	> 100 µM (inactive)	58.3 µM (inactive)
CS/C=C\C(=O)O[C@H]1C[C@@H]2[C@@H](O)c3occ(C)c3C[C@]2(C)[C@@H](C)C1	14.8 µM (inactive)	23.1 µM (inactive)	16 µM (inactive)	39.7 µM (inactive)	2.96 µM (inactive)	23.2 µM (inactive)	20.3 µM (inactive)	33.3 µM (inactive)	35.6 µM (inactive)	34.8 µM (inactive)	22.9 µM (inactive)	35.1 µM (inactive)	24.9 µM (inactive)	41.2 µM (inactive)	20.3 µM (inactive)			30.4 µM (inactive)	18.3 µM (inactive)	
CN(C)CCCN1C(=O)N(CCCN(C)C)c2c3cc(O)ccc3nc3c([N+](=O)[O-])ccc1c23	30.8 µM (inactive)	18 µM (inactive)	20 µM (inactive)	23.3 µM (inactive)	14.2 µM (inactive)	17.2 µM (inactive)	37.3 µM (inactive)	16 µM (inactive)	10.9 µM (inactive)	53.1 µM (inactive)	11.9 µM (inactive)		16.6 µM (inactive)	8.24 µM (inactive)	32.7 µM (inactive)	15.6 µM (inactive)	13.6 µM (inactive)	32.6 µM (inactive)	17.8 µM (inactive)	29.3 µM (inactive)
CN(C)Cc1cc(C(=O)/C=C/c2ccc(F)cc2)cc(CN(C)C)c1O	13.4 µM (inactive)	16.3 µM (inactive)	18.4 µM (inactive)	18.7 µM (inactive)	24.4 µM (inactive)	21.6 µM (inactive)	> 10 µM (inactive)	20.4 µM (inactive)	25.4 µM (inactive)	57.7 µM (inactive)	12.9 µM (inactive)	20.6 µM (inactive)	14.6 µM (inactive)	27.5 µM (inactive)	12.4 µM (inactive)		26.6 µM (inactive)	22.5 µM (inactive)	17.7 µM (inactive)	22.9 µM (inactive)
